US9295667B2, “Pharmaceutical composition for preventing or treating diabetes or fatty liver containing a CYP4A inhibitor as an active ingredient” (Korea Basic Science Institute, priority 2011, dated 2016)

Columns and labels:
[1] = tested on: ER stress markers (PERK, phospho-eIF2α, CHOP, phospho-JNK); test: Western blotting of ER stress markers in liver tissues of db/db mice; assay type: in vivo; conditions: 5 mg/kg/day intraperitoneal, 2 weeks
Experimental: (§1) Male C57BL/6J and C57BL/KsJ-db/db mice were purchased from Japan SLC. HET0016 (5 mg/kg/day) and clofibrate (400 mg/kg/day) were injected intraperitoneally into eight (8)-week-old mice for two (2) weeks. Control littermate mice for HET0016 were treated with DMSO, while control littermate mice for clofibrate were treated with corn oil. Intraperitoneal glucose tolerance test (IPGTT) was performed after overnight fasting followed by intraperitoneal injection of lg/kg of glucose dissolved in PBS. The concentrations of blood glucose were measured using a One Touch Ultra glucometer (LifeScan, Inc.) before (0 min) and at 15, 30, 60, 90 and 120 min. after glucose injection. Livers isolated from 10-week-old mice were fixed in 10% neutral buffered formalin solution (Sigma), and paraffin sections were stained with hematoxylin-eosin.
Liver microsomes were prepared from fresh mice livers by applying a slight modification to the above described methods. Separated livers were thoroughly sprinkled with 1.15% KCl solution. Subsequently, the livers were homogenized with 4 times volume of a homogenizing buffer (0.1 M Tris-HCl, pH 7.4; 0.1 M KCl; […], pH 7.5; 25 μM butylated hydroxyltoluene). In order to remove un-destructed cells, nuclei and mitochondria, the obtained homogenate was centrifuged in a low-powered centrifugation (1,000× g, 4° C. for 15 min.) The obtained supernatant was then centrifuged in a higher powered centrifugation (100,000× g, 4° C. for 60 min.), resulting in the precipitation of microsomes. Pellets of compactly packed microsomes were re-suspended in 3 ml of an ice-cooled pyrophosphate buffer (0.1 M potassium pyrophosphate; 1 mM EDTA, pH 7.5; 20 μM butylated hydroxyltoluene) by using a homogenizer, followed by further centrifugation at 100,000× g, 4° C. for 60 min. The washed microsome pellets were finally suspended in 2 ml of an ice-cooled microsome buffer (10 mM Tris-HCl, pH 7.4; 1 mM EDTA, pH 7.5; 20% glycerol).
(§2) Proteins were denatured at 95° C., and separated by SDS-PAGE, followed by electroblotting on a membrane made of nitrocellulose (NC) or polyvinylidene difluoride (PVDF). After blocking in TBST (Tris-buffered Saline, 0.1% Tween-20) containing 5% non-fat milk (skim milk) or 5% bovine serum albumin (BSA), the membrane was incubated with labeled primary antibodies. Subsequently, the membrane was washed with TBST and further incubated with secondary antibodies coupled with horseradish peroxides. Protein blots were detected by using ECL kit and visualized by a luminescence imaging analyzer of LAS-4000 mini system and software (FujiFilm). […]

[2] = tested on: db/db mice; test: Level of blood glucose following 6 hours' fasting in db/db mice; assay type: in vivo; conditions: 5 mg/kg/day intraperitoneal, 2 weeks
Experimental: as §1, with “Intraperitoneal glucose tolerance test (IPGTT) was performed after overnight fasting followed by intraperitoneal injection of lg/kg of glucose dissolved in PBS.” left out

[3] = tested on: db/db mice; test: Intraperitoneal glucose tolerance test (IPGTT) in db/db mice; assay type: in vivo; conditions: 5 mg/kg/day intraperitoneal, 2 weeks, 1 g/kg glucose
Experimental: as §1

[4] = tested on: C57BL/6J mice; test: IPGTT in normal C57BL/6J mice; assay type: in vivo; conditions: normal wild type C57BL/6J mice, same doses as db/db mice (5 mg/kg/day intraperitoneal, 2 weeks)
Experimental: as §1

[5] = tested on: C57BL/6J mice; test: Liver tissue sections, hematoxylin-eosin staining, C57BL/6J mice; assay type: in vivo; conditions: normal wild type C57BL/6J mice, 5 mg/kg/day intraperitoneal, 2 weeks
Experimental: as §1

[6] = tested on: C57BL/6J mice; test: Liver triglyceride (TG) level in C57BL/6J mice; assay type: in vivo; conditions: normal wild type C57BL/6J mice, 5 mg/kg/day intraperitoneal, 2 weeks
Experimental: (§3) While the mice were sacrificed, their blood was obtained with their hearts being punctured. The concentration of serum insulin was determined by using a commercial mouse serum insulin ELISA kit (Shibayagi Co., Ltd.) according to the manufacturer's instructions. Lipid peroxidation was measured by using OxiSelect™ TBARS Assay Kit (Cell Biolabs, Inc.) to quantify malondialdehyde (MDA), a natural by-product of lipid peroxidation in the liver homogenates. The level of triglyceride in the mice livers was measured by using Triglyceride Quantification Kit (Abcam).

[7] = tested on: db/db mice; test: TBARS assay of MDA formation (lipid peroxidation) in liver of db/db mice; assay type: in vivo; conditions: 5 mg/kg/day intraperitoneal, 2 weeks
Experimental: as §3

[8] = tested on: insulin receptor (IR) and Akt; test: In vivo insulin signaling (phosphorylation of IR and Akt) in liver of db/db mice; conditions: 5 mg/kg/day intraperitoneal, 2 weeks
Experimental: as §1
as §2, with “Subsequently, the membrane was washed with TBST and further incubated with secondary antibodies coupled with horseradish peroxides.” left out

[9] = tested on: cleaved Caspase-3 and -9, Bax and Bcl-2; test: Apoptosis markers by Western blotting in liver of db/db mice; assay type: in vivo; conditions: 5 mg/kg/day intraperitoneal, 2 weeks
Experimental: as §1
(§4) Proteins were denatured at 95° C., and separated by SDS-PAGE, followed by electroblotting on a membrane made of nitrocellulose (NC) or polyvinylidene difluoride (PVDF). After blocking in TBST (Tris-buffered Saline, 0.1% Tween-20) containing 5% non-fat milk (skim milk) or 5% bovine serum albumin (BSA), the membrane was incubated with labeled primary antibodies. Subsequently, the membrane was washed with TBST and further incubated with secondary antibodies coupled with horseradish peroxides. Protein blots were detected by using ECL kit and visualized by a luminescence imaging analyzer of LAS-4000 mini system and software (FujiFilm). Following antibodies were utilized: mouse anti-β-actin (sc-47778), rabbit anti-CYP4A (sc-98988, Santa Cruz Biotechnology), mouse anti-ATF6 (IMG-273, Imgenex), mouse anti-eIF2α (ab5369), rabbit anti-phospho-eIF2α Ser51 (ab32157), rabbit anti-IRE1 (ab37073, Abcam), rabbit anti-PERK(#3192), rabbit anti-phospho-PERK Thr980 (#3179), rabbit anti-BiP (#3177), mouse anti-CHOP (#2895), rabbit anti-SAPK/JNK (#9252), rabbit anti-phospho-SAPK/JNK […] (#9251), rabbit anti-Insulin receptor β (#3025), rabbit anti-phospho-Insulin receptor β Tyr1150/1151 (#3024), rabbit anti-Akt (#4691), rabbit anti-phospho-Akt Ser473 (#4060), rabbit anti-Bcl-2 (#2876), rabbit anti-Bax (#2772), rabbit anti-divided caspase-3 (#9664), rabbit anti-divided caspase-9 (#9509), rabbit anti-Bax (#2772, Cell Signaling Technology), rabbit anti-ERP72 (obtained from Dr. O. Y. Kwon, College of Medicine, Chungnam National University).

[10] = tested on: db/db mice; test: Liver tissue sections, hematoxylin-eosin staining, db/db mice; assay type: in vivo; conditions: 5 mg/kg/day intraperitoneal, 2 weeks
Experimental: as §1

[11] = tested on: human hepatoma HepG2 cells; test: Tunicamycin-induced ER stress in HepG2 cells, Western blotting; assay type: cell-based; conditions: 4 μg/ml tunicamycin, combined treatment HET0016, 6 hours
Experimental: HepG2 cells were cultured in a Dulbecco's Modified Eagle Medium (DMEM, Gibco) Low Glucose supplemented with heat-inactivated 10% fetal bovine serum (FBS) and antibiotics at 37° C. in the presence of 5% moisturized CO2 and 95% air. The above cells were plated in a concentration of 3×10^4 cells/cm^2 and maintained in the cell culture medium for 24 hours prior to the following chemical processing. […] As a control, HepG2 cells were treated with DMSO.
as §4

[12] = tested on: C57BL/6J mice; test: Serum insulin ELISA in normal C57BL/6J mice; assay type: in vivo; conditions: normal wild type C57BL/6J mice, 5 mg/kg/day intraperitoneal, 2 weeks
Experimental: as §3

[13] = tested on: db/db mice; test: Serum insulin ELISA in db/db mice; assay type: in vivo; conditions: 5 mg/kg/day intraperitoneal, 2 weeks
Experimental: as §3

## CCCCc1ccc(N=CNO)c(C)c1 [HET0016, N-hydroxy-N′-(4-butyl-2-methylphenyl)-formamidine]
[1]
  activation of JNK: markedly decreased
  activity of PERK downstream signaling (phosphorylation status of eIF2α, expression level of CHOP): reduced
  expression of Cyp4a: not changed
  expression of PERK: reduced
[2]
  level of blood glucose: decreased
[3]
  insulin resistance (IPGTT): significantly improved
[4]
  insulin resistance (IPGTT): not altered
[5]
  hepatic physiology (liver sections): no differences
[6]
  hepatic steatosis (level of TG): no differences
[7]
  increase of hepatic lipid peroxidation (MDA): notably reduced
[8]
  phosphorylation of Akt: increased
  phosphorylation of insulin receptor (IR): increased
[9]
  apoptosis of the diabetic liver tissues: inhibited
  expression of Bax: suppressed
  expression of Bcl-2: increased
  level of active forms of caspase-3 and -9: reduced
[10]
  severe hepatic steatosis: relieved
[11]
  expression of PERK: remarkably down-regulate
  expression of phospho-JNK: remarkably down-regulate
  expression of phospho-eIF2α: remarkably down-regulate
[12]
  serum insulin level: no differences
[13]
  level of serum insulin: notably reduced
